# Reference: US12209079B2 (GENERAL INCORPORATED ASSOCIATION PHARMA VALLEY PROJECT …, priority 2017, dated 2025)
# Experiments:
# Type in all cases: in vivo, mouse
# [1] = test system: subcutaneous CT-26WT syngeneic graft of large intestine cancer; assay: Drug efficacy test, combined use of compound 103 and anti-PD1 antibody, mice with subcutaneous CT-26WT syngeneic graft (Test Example 7); details: 40 mg/kg oral twice a day, combined with anti-PD1 antibody 200 μg/individual i.p.; Balb/c mice; FIG. 6
# Procedure: Drug Efficacy Test on Combined Use of Compound 103 and Anti-PD1 Antibody Using Mice with Subcutaneous CT-26WT Syngeneic Graft of Large Intestine Cancer
# 5×10^5 cells of syngeneic large intestine cancer cell line CT26WT were subcutaneously transplanted to each of 6-week-old female Balb/c mice. The mice were divided into 3 groups each involving 8 individuals 10 days later when the average tumor size was 176 mm^3. The oral administration (40 mg/kg of compound 103 was administered twice a day at a 5-hour interval from days 1 to 5 and days 8 to 12), intravenous administration (5% glucose solution was administered once a day on days 1 and 8) and intraperitoneal administration (PBS and 200 μg/individual of an anti-PD1 antibody were administered once a day on days 1 and 8) of each agent were started. Then, the major axis and minor axis of subcutaneous tumor were measured three times a week using calipers, and a mean and standard error of the mean of the calculated volumes in each group were plotted. The calculation expression was Volume (mm^3)=[Width^2 (mm^2)×Length (mm)]/2. Compound 103 was suspended in 0.5% methyl cellulose.
# • with the solid line: the 5% glucose solution and PBS, X with the dotted line: the 5% glucose solution and the anti-PD1 antibody, and ∘ with the solid line: compound 103 and the anti-PD1 antibody.
# [2] = test system: subcutaneous CT-26WT syngeneic graft of large intestine cancer; assay: Drug efficacy test, combined use with anti-PD-1 antibody, mice with subcutaneous CT-26WT syngeneic graft (Test Example 2); details: 40 mg/kg oral twice a day, combined with anti-PD-1 antibody 200 μg/individual i.p.; Balb/c mice; FIG. 1
# Procedure: Drug Efficacy Test on Combined Use of IDO/TDO Inhibitor and Anti-PD-1 Antibody Using Mice with Subcutaneous CT-26WT Syngeneic Graft of Large Intestine Cancer
# 5×10^5 cells of syngeneic large intestine cancer cell line CT26WT were subcutaneously transplanted to each of 6-week-old female Balb/c mice. The mice were divided into 6 groups each involving 6 to 8 individuals 11 days later when the average tumor size was 212 mm^3. The oral administration (solvent for oral administration and 40 mg/kg each of epacadostat and compound 1 were administered twice a day at a 5-hour interval from days 1 to 5, days 8 to 12, and days 15 to 19) and intraperitoneal administration (PBS and 200 μg/individual of an anti-PD1 antibody were administered once a day on days 1, 4, 8, 11, 15, and 18) of each agent were started. Then, the major axis and minor axis of subcutaneous tumor were measured three times a week using calipers, and a mean and standard error of the mean of the calculated volumes in each group were plotted. The calculation expression was Volume (mm^3)=[Width^2 (mm^2)×Length (mm)]/2. The oral administration agent was dissolved in a solvent for oral administration of DMSO:PEG400:PBS=5:20:75. […]
# [3] = test system: subcutaneous CT-26WT syngeneic graft of large intestine cancer; assay: Drug efficacy test, combined use of compound 29 or 38 and anti-PD1 antibody, mice with subcutaneous CT-26WT syngeneic graft (Test Example 6); details: 40 mg/kg oral twice a day, combined with anti-PD1 antibody 200 μg/individual i.p.; Balb/c mice; FIG. 5
# Procedure: Drug Efficacy Test on Combined Use of Compound 29 or 38 and Anti-PD1 Antibody Using Mice with Subcutaneous CT-26WT Syngeneic Graft of Large Intestine Cancer
# 5×10^5 cells of syngeneic large intestine cancer cell line CT26WT were subcutaneously transplanted to each of 6-week-old female Balb/c mice. The mice were divided into 6 groups each involving 6 individuals 10 days later when the average tumor size was 250 mm^3. The oral administration (solvent for oral administration and 40 mg/kg each of compounds 29 and 38 were administered twice a day at a 5-hour interval from days 1 to 5 and days 8 to 12) and intraperitoneal administration (PBS and 200 μg/individual of an anti-PD1 antibody were administered once a day on days 1 and 8) of each agent were started. Then, the major axis and minor axis of subcutaneous tumor were measured three times a week using calipers, and a mean and standard error of the mean of the calculated volumes in each group were plotted. The calculation expression was Volume (mm^3)=[[…]×Length (mm)]/2. Compound 29 or 38 was suspended in 0.5% methyl cellulose as a solvent for oral administration. […]
smiles,measurement,setting,value
"Br.N#Cc1ccc(CNC(=O)c2cc(Br)ccc2CSC(=N)N)cc1 [Compound 103, 4-Bromo-2-((4-cyanobenzyl)carbamoyl)benzyl carbamimidothioate hydrobromide]",tumor growth (tumor volume),[1],can suppress tumor growth
"Cl.Cl.N=C(N)SCc1ccccc1CSC(=N)N [Compound 1, 1,2-phenylenebis(methylene) dicarbamimidothioate dihydrochloride]",tumor growth (tumor volume),[2],can suppress tumor growth
"c1ccc(CSC2=NCN(CC3CCCCC3)CN2)c(CSC2=NCN(CC3CCCCC3)CN2)c1 [Compound 29, 1,2-bis(((5-(cyclohexylmethyl)-1,4,5,6-tetrahydro-1,3,5-triazin-2-yl)thio)methyl)benzene]",tumor growth (tumor volume),[3],can suppress tumor growth
